Where a name gives a salt, the structure may show the parent alone.
Assays:
[1] = molecular target: T1, bovines pankreatisches Trypsin (Bos taurus, UniProt P00760); assay: Inhibition constant Ki, chromogenic substrate S-2238, photometric at 405 nm; type: biochemical, bovin; details: pH 7.5, 25°C, 0.1 M phosphate buffer, 0.2 M NaCl
T1 construct: bovines pankreatisches Trypsin (Sigma); purchased Sigma; host or cells: bovine pancreas
T1 sequence (P00760 24-246): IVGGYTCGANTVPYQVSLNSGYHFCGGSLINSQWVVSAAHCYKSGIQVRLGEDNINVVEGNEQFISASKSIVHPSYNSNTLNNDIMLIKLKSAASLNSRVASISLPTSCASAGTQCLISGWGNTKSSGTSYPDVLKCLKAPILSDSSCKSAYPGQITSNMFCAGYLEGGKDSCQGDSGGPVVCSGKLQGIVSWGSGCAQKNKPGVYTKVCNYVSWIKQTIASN
Procedure: (§1) Die kinetischen Messungen wurden in 0.2 M Kochsalz und 0.5 % Polyethylenglycol 6000 enthaltendem 0.1 M Phosphatpuffer (Herstellung siehe unten) bei pH 7.5 und 25°C in Polystyrol-Halbmikroküvetten in einem Gesamtvolumen von 1 ml durchgeführt . Die Reaktionen wurden durch Zugabe von Enzym zu vorinkubierten Lösungen, die entweder Dimethylsulfoxid (Kontrolle) oder Lösungen der Testsubstanz in DMSO (Inhibitor-Stocklösungen: 10 mM in DMSO) enthielten, gestartet. Die Zunahme der Extinktion bei 405 nm als Folge der Freisetzung von 4-Nitroanilin aus dem Substrat wurde photometrisch über einen Zeitraum von 12 Minuten verfolgt. Im Abstand von 20 Sekunden wurden Meßwerte (Extinktion vs. Zeit) ermittelt und diese Daten per Computer gespeichert.
(§2) Zur Bestimmung der Inhibitionskonstanten Ki wurde wie folgt vorgegangen: Die Geschwindigkeiten V0 (Extinktionsänderung pro Sekunde; Messungen ohne Inhibitor) und Vi (Extinktionsänderung pro Sekunde; Messungen mit Inhibitor) wurden durch lineare Regression bestimmt, wobei nur die Meßpunkte berücksichtigt wurden, bei der sich die Substratkonzentration um weniger als 15% verringerte. Aus einer Meßreihe (konstante Inhibitorkonzentration, variable Substratkonzentrationen) bestimmte man KM und VMAX durch nichtlinearen Fit auf die Gleichung V =(Vmax *[S])/([S]+KM) [formula] […]

humanem Faktor Xa = molecular target: T2, humanem Faktor Xa (Homo sapiens, UniProt P00742); assay: Inhibition constant Ki, chromogenic substrate Chromozym X, photometric at 405 nm; type: biochemical; details: pH 7.5, 25°C, 0.1 M phosphate buffer, 0.2 M NaCl; read-out: Ki (fXa)
T2 construct: humanem Faktor Xa; purchased Boehringer Mannheim GmbH
T2 sequence (P00742 235-488 limits assumed): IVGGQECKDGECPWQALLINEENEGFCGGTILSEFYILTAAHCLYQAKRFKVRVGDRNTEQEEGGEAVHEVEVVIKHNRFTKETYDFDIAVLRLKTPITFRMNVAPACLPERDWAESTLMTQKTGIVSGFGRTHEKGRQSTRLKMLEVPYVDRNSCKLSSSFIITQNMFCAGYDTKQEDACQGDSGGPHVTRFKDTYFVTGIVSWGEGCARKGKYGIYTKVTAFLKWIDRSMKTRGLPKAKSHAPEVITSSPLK
T2 sequence (P00742 41-179 partner limits assumed): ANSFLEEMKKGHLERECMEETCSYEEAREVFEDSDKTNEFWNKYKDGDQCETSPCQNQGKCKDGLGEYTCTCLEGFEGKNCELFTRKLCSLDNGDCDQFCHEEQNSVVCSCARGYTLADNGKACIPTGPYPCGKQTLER
Procedure: as §1, §2

Humanes α-Thrombin = molecular target: T3, Humanes α-Thrombin (Homo sapiens, UniProt P00734); assay: Inhibition constant Ki, chromogenic substrate S-2238, photometric at 405 nm; type: biochemical; details: pH 7.5, 25°C, 0.1 M phosphate buffer, 0.2 M NaCl
T3 construct: Humanes α-Thrombin; purchased Sigma
Procedure: as §1, §2

Pferdethrombin = assay: Thrombin time in citrated plasma with thrombin reagent, ball coagulometer; type: biochemical, Pferd; details: 500 µM final concentration; time as difference to control (control ca. 24 s)
Procedure: (§3) Neun Teile frisches Blut gesunder Spender werden mit einem Teil Natriumcitratlösung (0.11 Mol/l) gemischt und bei ca. 3000 U/min 10 Minuten bei Raumtemperatur zentrifügiert. Das Plasma wird abpipettiert und kann bei Raumtemperatur ca. 8 h aufbewahrt werden.
200 µl Citratplasma werden in einem Kugelkoagulometer (KC10 der Fa. Amelung) 2 Minuten bei 37°C inkubiert. Zu 190 µl vortemperiertem Thrombin-Reagenz (Boehringer Mannheim GmbH; enthält ca. 3 U/ml Pferdethrombin und 0.0125 M Ca^++ gibt man 10 µl Dimethylsulfoxid (DMSO) oder eine Lösung der Wirksubstanz in DMSO. Mit Zugabe dieser 200 µl Lösung zum Plasma wird eine Stoppuhr gestartet und der Zeitpunkt bis zum Eintritt der Gerinnung bestimmt. Die Thrombinzeit beträgt bei den Kontrollmessungen ca. 24 Sekunden und wird durch Wirksubstanzen verlängert. Sofern bei den Messungen nach 5 Minuten keine Gerinnung eintrat, wurde der Versuch gestoppt (>300).
In Tabelle 1 sind die gemessenen Thrombinzeiten in Sekunden als Differenz zur Kontrolle angegeben. Die Konzentrationen der Wirksubstanzen betrugen im Endvolumen 500 µM (TT 500).

Citratplasma = assay: Activated partial thromboplastin time (APTT) in citrated plasma, ball coagulometer; type: biochemical; details: time as difference to control (control ca. 28-35 s)
Procedure: as §3
100 µl Citratplasma und 100 µl APTT-Reagenz (Diagnostica Stago / Boehringer Mannheim GmbH; enthält Lyophilisat Cephalin mit mikrokristallinem Kieselguraktivator) werden zusammen mit 10 µl Dimethylsulfoxid (DMSO) oder 10 µl einer Lösung der Wirksubstanz in DMSO in einem Kugelkoagulometer (KC10 der Fa. Amelung) 3 Minuten bei 37°C inkubiert. Mit Zugabe von 100 µl 0.025 M Calciumchlorid-Lösung wird eine Stoppuhr gestartet und der Zeitpunkt bis zum Eintritt der Gerinnung bestimmt. Die APTT beträgt bei den Kontrollmessungen ca. 28 -35 Sekunden und wird durch Wirksubstanzen verlängert. Sofern bei den Messungen nach 5 Minuten keine Gerinnung eintrat, wurde der Versuch gestoppt (>300).
In Tabelle 1 sind die gemessenen APTT-Zeiten in Sekunden als Differenz zur Kontrolle angegeben. Die Konzentrationen der Wirksubstanzen betrugen im Endvolumen 1000 µM (APTT 1000), 100 µM (APTT 100), 10 µM (APTT 10), 1 µM (APTT 1).

Question: Which results are given for `N=C(N)N1CCC(Oc2ccc(S(=O)(=O)Nc3ccc4c(c3)CN(C(=N)N)CC4)cc2)CC1` [Beispiel 1, 7-[4-(1-Carbamimidoyl-piperidin-4-yloxy)-benzolsulfonylamino]-3,4-dihydro-1H-isochinolin-2-carboxamidin-dihydrochlorid]?
Answer: Ki [1]: 100 nM; Ki (humanem Faktor Xa): 10 nM; Ki (Humanes α-Thrombin): 2000 nM; TT 500 (Pferdethrombin): 40 Sekunden; APTT 1 (Citratplasma; 1 µM final concentration): 12 Sekunden; APTT 10 (Citratplasma; 10 µM final concentration): 50 Sekunden; APTT 100 (Citratplasma; 100 µM final concentration): 140 Sekunden; APTT 1000 (Citratplasma; 1000 µM final concentration, test stopped after 5 min (>300)): > 300 Sekunden

Source: EP0937723A1, “Novel sulfonamides, process for their preparation and medicaments containing them” (Roche Diagnostics GmbH, priority 1998, dated 1999)
